In ChEMBL document CHEMBL4024754, “Development of Potent, Protease-Resistant Agonists of the Parathyroid Hormone Receptor with Broad β Residue Distribution” (J Med Chem, 2017):
pEC50: −log10 of the molar value. Numbered stars: 1 amine (or outer) side, 2 acyl side, 3 side chain; on linkers, the order of the positions; unused ones are H or OH. Square brackets hold non-standard residues; d marks the D form. Peptide text beside a SMILES is read from it. * marks the point of attachment. NH(1S,2S-2-CONH2-cPent) = NC(=O)[C@H]1CCC[C@@H]1N*; β3hW = N[C@H](CC(=O)O)Cc1c[nH]c2ccccc12; ACPC(1S,2S) = N[C@H]1CCC[C@@H]1C(=O)*; X1 = O=C([C@H]1CCC[C@@H]1N[*:1])[*:2]; X2 = O=C([C@H]1CNC[C@@H]1N[*:1])[*:2]; hArg = N=C(N)NCCCC[C@H](N)C(=O)O; β3hE = N[C@@H](CCC(=O)O)CC(=O)O; β3hF = N[C@H](CC(=O)O)Cc1ccccc1; β3hK = NCCCC[C@H](N)CC(=O)O; β3hM = CSCC[C@H](N)CC(=O)O; β3hD = NC(CC(=O)O)CC(=O)O; Aib = CC(C)(N)C(=O)O

Assays:
[1] = molecular target: T1, Parathyroid hormone/parathyroid hormone-related peptide receptor (Homo sapiens, UniProt Q03431); experiment: Agonist activity at human PTH1 receptor expressed in human GP2.3 cells assessed as induction of cAMP after 12 to 20 mins by luciferase reporter gene assay; assay type: functional, cell-based; details: read-out: EC50
T1 sequence (Q03431 whole entry): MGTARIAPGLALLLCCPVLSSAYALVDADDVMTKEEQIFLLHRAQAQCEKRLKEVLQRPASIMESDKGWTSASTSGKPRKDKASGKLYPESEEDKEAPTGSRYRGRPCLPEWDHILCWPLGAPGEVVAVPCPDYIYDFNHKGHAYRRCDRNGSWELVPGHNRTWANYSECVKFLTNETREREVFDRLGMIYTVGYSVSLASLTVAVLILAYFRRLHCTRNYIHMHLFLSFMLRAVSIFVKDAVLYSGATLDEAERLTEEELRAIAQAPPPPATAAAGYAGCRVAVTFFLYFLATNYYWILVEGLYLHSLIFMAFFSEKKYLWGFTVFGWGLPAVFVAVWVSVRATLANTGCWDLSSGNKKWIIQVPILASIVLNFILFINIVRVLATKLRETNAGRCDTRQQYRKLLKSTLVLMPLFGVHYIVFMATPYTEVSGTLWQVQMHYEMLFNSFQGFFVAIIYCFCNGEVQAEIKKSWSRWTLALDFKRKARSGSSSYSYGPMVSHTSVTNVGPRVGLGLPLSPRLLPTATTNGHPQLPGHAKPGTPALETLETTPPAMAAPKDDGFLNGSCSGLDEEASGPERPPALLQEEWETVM

[2] = molecular target: T2, Parathyroid hormone/parathyroid hormone-related peptide receptor (Homo sapiens) (UniProt Q03431); experiment: Agonist activity at human PTH1 receptor expressed in human GP2.3 cells assessed as induction of cAMP after 12 to 20 mins by luciferase reporter gene assay relative to PTH(1 to 34 residues)-NH2; assay type: functional, cell-based
T2 sequence (whole entry): T1 sequence (Q03431 whole entry)

Question: `CC[C@H](C)[C@H](NC(=O)[C@H](CCC(=O)O)NC(=O)C(C)(C)NC(=O)[C@@H](NC(=O)[C@H]1CCC[C@@H]1N)C(C)C)C(=O)N[C@@H](CCC(N)=O)C(=O)N[C@H]1CCC[C@@H]1C(=O)N[C@@H](CCSC)C(=O)N[C@@H](Cc1cnc[nH]1)C(=O)N[C@@H](CCC(N)=O)C(=O)N[C@@H](CCCCNC(=N)N)C(=O)N[C@@H](C)C(=O)N[C@@H](CCCCN)C(=O)N[C@@H](Cc1c[nH]c2ccccc12)C(=O)N[C@@H](CC(C)C)C(=O)N[C@@H](CC(N)=O)C(=O)N[C@@H](CO)C(=O)N[C@@H](CCSC)C(=O)N[C@@H](CCCNC(=N)N)C(=O)N[C@@H](CCCNC(=N)N)C(=O)N[C@H](C(=O)N[C@@H](CCC(=O)O)C(=O)N[C@@H](Cc1c[nH]c2ccccc12)C(=O)N[C@@H](CC(C)C)C(=O)N[C@@H](CCCNC(=N)N)C(=O)N[C@@H](CCCCN)C(=O)N[C@@H](CCCCN)C(=O)N[C@@H](CC(C)C)C(=O)N[C@@H](CCC(N)=O)C(=O)N[C@@H](CC(=O)O)C(=O)N[C@H](C(=O)N[C@@H](Cc1cnc[nH]1)C(=O)N[C@@H](CC(N)=O)C(=O)N[C@@H](Cc1ccccc1)C(N)=O)C(C)C)C(C)C` ({ACPC(1S,2S)}-V[Aib]EIQ[X1]MHQ[hArg]AKWLNSMRRVEWLRKKLQDVHNF-NH2) was tested. Which pEC50 [1] did it give?
Answer: 9.28

Question: And the fold change (FC) [2]?
Answer: 6.3

Question: How did the pEC50 [1] turn out when `CC[C@H](C)[C@H](NC(=O)[C@H](CCC(=O)O)NC(=O)[C@H](C)NC(=O)[C@@H](NC(=O)[C@H](C)N)C(C)C)C(=O)N[C@@H](CCC(N)=O)C(=O)N[C@@H](CC(C)C)C(=O)N[C@@H](CCSC)C(=O)N[C@@H](Cc1cnc[nH]1)C(=O)N[C@@H](CCC(N)=O)C(=O)N[C@@H](CCCCNC(=N)N)C(=O)N[C@@H](C)C(=O)N[C@@H](CCCCN)C(=O)N[C@H](CC(=O)N[C@@H](CC(C)C)C(=O)N[C@@H](CC(N)=O)C(=O)N[C@@H](CO)C(=O)N[C@@H](CCSC)CC(=O)N[C@@H](CCCNC(=N)N)C(=O)N[C@@H](CCCNC(=N)N)C(=O)N[C@H](C(=O)N[C@@H](CCC(=O)O)CC(=O)N[C@@H](Cc1c[nH]c2ccccc12)C(=O)N[C@@H](CC(C)C)C(=O)N[C@@H](CCCNC(=N)N)C(=O)N[C@@H](CCCCN)CC(=O)N[C@@H](CCCCN)C(=O)N[C@@H](CC(C)C)C(=O)N[C@@H](CCC(N)=O)C(=O)N[C@@H](CC(=O)O)CC(=O)N[C@H](C(=O)N[C@@H](Cc1cnc[nH]1)C(=O)N[C@@H](CC(N)=O)C(=O)N[C@H](CC(N)=O)Cc1ccccc1)C(C)C)C(C)C)Cc1c[nH]c2ccccc12` (H-AVAEIQLMHQ[hArg]AK[β3hW]LNS[β3hM]RRV[β3hE]WLR[β3hK]KLQ[β3hD]VHN[β3hF]-NH2) was run?
Answer: 9.36

Question: What about the fold change (FC) [2] of the same compound?
Answer: 5.4

Question: How did the pEC50 [1] turn out when `CSCC[C@@H](CC(=O)N[C@@H](CCC(=O)O)C(=O)N[C@@H](CCCNC(=N)N)C(=O)N[C@H](C(=O)N[C@@H](CCC(=O)O)CC(=O)N[C@@H](Cc1c[nH]c2ccccc12)C(=O)N[C@@H](CC(C)C)C(=O)N[C@@H](CCCNC(=N)N)C(=O)N[C@@H](CCCCN)CC(=O)N[C@@H](CCCCN)C(=O)N[C@@H](CC(C)C)C(=O)N[C@@H](CCC(N)=O)C(=O)N[C@@H](CC(=O)O)CC(=O)N[C@H](C(=O)N[C@@H](Cc1cnc[nH]1)C(=O)N[C@@H](CC(N)=O)C(=O)N[C@H](CC(N)=O)Cc1ccccc1)C(C)C)C(C)C)NC(=O)[C@H](CO)NC(=O)[C@H](CC(N)=O)NC(=O)[C@H](CC(C)C)NC(=O)C[C@H](Cc1c[nH]c2ccccc12)NC(=O)[C@H](CCCCN)NC(=O)CNC(=O)[C@H](CC(C)C)NC(=O)[C@H](CC(N)=O)NC(=O)[C@H](Cc1cnc[nH]1)NC(=O)[C@H](CCSC)NC(=O)[C@H]1CCC[C@@H]1NC(=O)[C@H](CCC(N)=O)NC(=O)[C@H]1CCC[C@@H]1NC(=O)[C@H](CCC(=O)O)NC(=O)[C@H](CO)NC(=O)[C@@H](NC(=O)[C@H]1CCC[C@@H]1N)C(C)C` ({ACPC(1S,2S)}-VSE[X1]Q[X1]MHNLGK[β3hW]LNS[β3hM]ERV[β3hE]WLR[β3hK]KLQ[β3hD]VHN[β3hF]-NH2) was run?
Answer: 6.78

Question: What about the fold change (FC) [2] of the same compound?
Answer: 2050

Question: With `CC[C@H](C)[C@H](NC(=O)[C@H](CCC(=O)O)NC(=O)[C@H](C)NC(=O)[C@@H](NC(=O)[C@H](C)N)C(C)C)C(=O)N[C@@H](CCC(N)=O)C(=O)N[C@@H](CC(C)C)C(=O)N[C@@H](CCSC)C(=O)N[C@@H](Cc1cnc[nH]1)C(=O)N[C@@H](CCC(N)=O)C(=O)N[C@@H](CCCCNC(=N)N)C(=O)N[C@@H](C)C(=O)N[C@@H](CCCCN)C(=O)N[C@H]1CCC[C@@H]1C(=O)N[C@@H](CC(C)C)C(=O)N[C@@H](CC(N)=O)C(=O)N[C@@H](CO)C(=O)N[C@H]1CCC[C@@H]1C(=O)N[C@@H](CCCNC(=N)N)C(=O)N[C@@H](CCCNC(=N)N)C(=O)N[C@H](C(=O)N[C@H]1CNC[C@@H]1C(=O)N[C@@H](Cc1c[nH]c2ccccc12)C(=O)N[C@@H](CC(C)C)C(=O)N[C@@H](CCCNC(=N)N)C(=O)N[C@H]1CNC[C@@H]1C(=O)N[C@@H](CCCCN)C(=O)N[C@@H](CC(C)C)C(=O)N[C@@H](CCC(N)=O)C(=O)N[C@H]1CCC[C@@H]1C(=O)N[C@H](C(=O)N[C@@H](Cc1cnc[nH]1)C(=O)N[C@@H](CC(N)=O)C(=O)N[C@H]1CCC[C@@H]1C(N)=O)C(C)C)C(C)C` (H-AVAEIQLMHQ[hArg]AK[X1]LNS[X1]RRV[X2]WLR[X2]KLQ[X1]VHN-{NH(1S,2S-2-CONH2-cPent)}) as the compound, how does the pEC50 [1] read?
Answer: 9.29

Question: What about the fold change (FC) [2] of the same compound?
Answer: 6.3

Question: What does the source list for `CSCC[C@@H](CC(=O)N[C@@H](CCCNC(=N)N)C(=O)N[C@@H](CCCNC(=N)N)C(=O)N[C@H](C(=O)N[C@@H](CCC(=O)O)CC(=O)N[C@@H](Cc1c[nH]c2ccccc12)C(=O)N[C@@H](CC(C)C)C(=O)N[C@@H](CCCNC(=N)N)C(=O)N[C@@H](CCCCN)CC(=O)N[C@@H](CCCCN)C(=O)N[C@@H](CC(C)C)C(=O)N[C@@H](CCC(N)=O)C(=O)N[C@@H](CC(=O)O)CC(=O)N[C@H](C(=O)N[C@@H](Cc1cnc[nH]1)C(=O)N[C@@H](CC(N)=O)C(=O)N[C@H](CC(N)=O)Cc1ccccc1)C(C)C)C(C)C)NC(=O)[C@H](CO)NC(=O)[C@H](CC(N)=O)NC(=O)[C@H](CC(C)C)NC(=O)C[C@H](Cc1c[nH]c2ccccc12)NC(=O)[C@H](CCCCN)NC(=O)[C@H](C)NC(=O)[C@H](CCCCNC(=N)N)NC(=O)[C@H](CCC(N)=O)NC(=O)[C@H](Cc1cnc[nH]1)NC(=O)[C@H](CCSC)NC(=O)[C@H]1CCC[C@@H]1NC(=O)[C@H](CCC(N)=O)NC(=O)[C@H]1CCC[C@@H]1NC(=O)[C@H](CCC(=O)O)NC(=O)C(C)(C)NC(=O)[C@@H](NC(=O)[C@H]1CCC[C@@H]1N)C(C)C` ({ACPC(1S,2S)}-V[Aib]E[X1]Q[X1]MHQ[hArg]AK[β3hW]LNS[β3hM]RRV[β3hE]WLR[β3hK]KLQ[β3hD]VHN[β3hF]-NH2)?
Answer: pEC50 [1]: 9.10; fold change (FC) [2]: 9.7

Question: With `CC[C@H](C)[C@H](NC(=O)[C@H](CCC(=O)O)NC(=O)[C@H](CO)NC(=O)[C@@H](NC(=O)[C@H]1CCC[C@@H]1N)C(C)C)C(=O)N[C@@H](CCC(N)=O)C(=O)N[C@H]1CCC[C@@H]1C(=O)N[C@@H](CCSC)C(=O)N[C@@H](Cc1cnc[nH]1)C(=O)N[C@@H](CC(N)=O)C(=O)N[C@@H](CC(C)C)C(=O)NCC(=O)N[C@@H](CCCCN)C(=O)N[C@H](CC(=O)N[C@@H](CC(C)C)C(=O)N[C@@H](CC(N)=O)C(=O)N[C@@H](CO)C(=O)N[C@@H](CCSC)CC(=O)N[C@@H](CCC(=O)O)C(=O)N[C@@H](CCCNC(=N)N)C(=O)N[C@H](C(=O)N[C@@H](CCC(=O)O)CC(=O)N[C@@H](Cc1c[nH]c2ccccc12)C(=O)N[C@@H](CC(C)C)C(=O)N[C@@H](CCCNC(=N)N)C(=O)N[C@@H](CCCCN)CC(=O)N[C@@H](CCCCN)C(=O)N[C@@H](CC(C)C)C(=O)N[C@@H](CCC(N)=O)C(=O)N[C@@H](CC(=O)O)CC(=O)N[C@H](C(=O)N[C@@H](Cc1cnc[nH]1)C(=O)N[C@@H](CC(N)=O)C(=O)N[C@H](CC(N)=O)Cc1ccccc1)C(C)C)C(C)C)Cc1c[nH]c2ccccc12` ({ACPC(1S,2S)}-VSEIQ[X1]MHNLGK[β3hW]LNS[β3hM]ERV[β3hE]WLR[β3hK]KLQ[β3hD]VHN[β3hF]-NH2) as the compound, how does the pEC50 [1] read?
Answer: 8.74

Question: And the fold change (FC) [2]?
Answer: 22.6

Question: What does the source list for `CSCC[C@H](NC(=O)[C@H](CO)NC(=O)[C@H](CC(N)=O)NC(=O)[C@H](CC(C)C)NC(=O)[C@H](Cc1c[nH]c2ccccc12)NC(=O)[C@H](CCCCN)NC(=O)[C@H](C)NC(=O)[C@H](CCCCNC(=N)N)NC(=O)[C@H](CCC(N)=O)NC(=O)[C@H](Cc1cnc[nH]1)NC(=O)[C@H](CCSC)NC(=O)[C@H]1CCC[C@@H]1NC(=O)[C@H](CCC(N)=O)NC(=O)[C@H]1CCC[C@@H]1NC(=O)[C@H](CCC(=O)O)NC(=O)C(C)(C)NC(=O)[C@@H](NC(=O)[C@H]1CCC[C@@H]1N)C(C)C)C(=O)N[C@@H](CCCNC(=N)N)C(=O)N[C@@H](CCCNC(=N)N)C(=O)N[C@H](C(=O)N[C@@H](CCC(=O)O)C(=O)N[C@@H](Cc1c[nH]c2ccccc12)C(=O)N[C@@H](CC(C)C)C(=O)N[C@@H](CCCNC(=N)N)C(=O)N[C@@H](CCCCN)C(=O)N[C@@H](CCCCN)C(=O)N[C@@H](CC(C)C)C(=O)N[C@@H](CCC(N)=O)C(=O)N[C@@H](CC(=O)O)C(=O)N[C@H](C(=O)N[C@@H](Cc1cnc[nH]1)C(=O)N[C@@H](CC(N)=O)C(=O)N[C@@H](Cc1ccccc1)C(N)=O)C(C)C)C(C)C` ({ACPC(1S,2S)}-V[Aib]E[X1]Q[X1]MHQ[hArg]AKWLNSMRRVEWLRKKLQDVHNF-NH2)?
Answer: pEC50 [1]: 9.40; fold change (FC) [2]: 4.9
